Test results reported in PubChem BioAssay (NCI).
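Assay format: 96-well plates, 48-hour exposure. GI50 = concentration required for 50% inhibition of growth. The concentration for full growth arrest is given as TGI.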

Key:
Assay in all cases: growth of human tumour cells (NCI), 48 h
[1] = tested on: 786-0 renal
[2] = tested on: A498 renal
[3] = tested on: A549 NSCLC
[4] = tested on: ACHN renal
[5] = tested on: BT-549 breast
[6] = tested on: CAKI-1 renal
[7] = tested on: CCRF-CEM leukemia
[8] = tested on: COLO 205 colon
[9] = tested on: DU-145 prostate
[10] = tested on: EKVX NSCLC
[11] = tested on: HCC-2998 colon
[12] = tested on: HCT-116 colon
[13] = tested on: HCT-15 colon
[14] = tested on: HL-60(TB) leukemia
[15] = tested on: HOP-62 NSCLC
[16] = tested on: HOP-92 NSCLC
[17] = tested on: HS 578T breast
[18] = tested on: HT29 colon
[19] = tested on: IGROV1 ovarian
[20] = tested on: K-562 leukemia
[21] = tested on: KM12 colon
[22] = tested on: LOX IMVI melanoma
[23] = tested on: M14 melanoma
[24] = tested on: MALME-3M melanoma
[25] = tested on: MCF7 breast
[26] = tested on: MDA-MB-231 breast
[27] = tested on: MDA-MB-435
[28] = tested on: MOLT-4 leukemia
[29] = tested on: NCI-H226 lung
[30] = tested on: NCI-H23 lung
[31] = tested on: NCI-H460 lung
[32] = tested on: NCI-H522 lung
[33] = tested on: NCI/ADR-RES ovarian
[34] = tested on: OVCAR-3 ovarian
[35] = tested on: OVCAR-4 ovarian
[36] = tested on: OVCAR-5 ovarian
[37] = tested on: OVCAR-8 ovarian
[38] = tested on: PC-3 prostate
[39] = tested on: RPMI-8226 leukemia
[40] = tested on: RXF 393 renal
[41] = tested on: SF-268 CNS
[42] = tested on: SF-295 CNS
[43] = tested on: SF-539 CNS
[44] = tested on: SK-MEL-2 melanoma
[45] = tested on: SK-MEL-28 melanoma
[46] = tested on: SK-MEL-5 melanoma
[47] = tested on: SK-OV-3 ovarian
[48] = tested on: SN12C renal
[49] = tested on: SNB-19 CNS
[50] = tested on: SNB-75 CNS
[51] = tested on: SR leukemia
[52] = tested on: SW-620 colon
[53] = tested on: T-47D breast
[54] = tested on: TK-10 renal
[55] = tested on: U251 CNS
[56] = tested on: UACC-257 melanoma
[57] = tested on: UACC-62 melanoma
[58] = tested on: UO-31 renal

## O=C(/C=C/C12c3ccccc3C(c3ccccc31)C1C(=O)NC(=O)C12)c1ccccn1 (stereo not drawn)
[1]
  GI50: 1.74 µM
  TGI: 4 µM
[2]
  GI50: 1.66 µM
  TGI: 3.15 µM
[3]
  GI50: 2.34 µM
  TGI: 6.86 µM
[4]
  GI50: 2.88 µM
  TGI: 10.3 µM
[5]
  GI50: 1.82 µM
  TGI: 3.69 µM
[6]
  GI50: 1.66 µM
  TGI: 4.38 µM
[7]
  GI50: 1.44 µM
  TGI: 9.92 µM
[8]
  GI50: 1.88 µM
  TGI: 3.62 µM
[9]
  GI50: 1.02 µM
  TGI: 2.21 µM
[10]
  GI50: 1.91 µM
  TGI: 4.93 µM
[11]
  GI50: 1.88 µM
  TGI: 3.51 µM
[12]
  GI50: 1.42 µM
  TGI: 3.14 µM
[13]
  GI50: 1.17 µM
  TGI: 3.35 µM
[14]
  GI50: 1.02 µM
  TGI: 3.41 µM
[15]
  GI50: 1.75 µM
  TGI: 4.15 µM
[16]
  GI50: 1.98 µM
  TGI: 4.54 µM
[17]
  GI50: 3.2 µM
  TGI: 23 µM
[18]
  GI50: 1.86 µM
  TGI: 4.56 µM
[19]
  GI50: 1.36 µM
  TGI: 6.53 µM
[20]
  GI50: 1.37 µM
  TGI: 18.1 µM
[21]
  GI50: 1.43 µM
  TGI: 3.03 µM
[22]
  GI50: 1.11 µM
  TGI: 2.51 µM
[23]
  GI50: 1.83 µM
  TGI: 4.12 µM
[24]
  GI50: 2.14 µM
  TGI: 5.05 µM
[25]
  GI50: 0.562 µM
  TGI: 2.43 µM
[26]
  GI50: 1.49 µM
  TGI: 4.44 µM
[27]
  GI50: 1.77 µM
  TGI: 5.15 µM
[28]
  GI50: 2.11 µM
  TGI: 9.55 µM
[29]
  GI50: 2.98 µM
  TGI: 11.7 µM
[30]
  GI50: 1.89 µM
  TGI: 4.07 µM
[31]
  GI50: 1.08 µM
  TGI: 4.11 µM
[32]
  GI50: 1.52 µM
  TGI: 3.37 µM
[33]
  GI50: 2.81 µM
  TGI: 10.1 µM
[34]
  GI50: 1.45 µM
  TGI: 2.88 µM
[35]
  GI50: 2.69 µM
  TGI: 11.7 µM
[36]
  GI50: 2.04 µM
  TGI: 4.54 µM
[37]
  GI50: 1.8 µM
  TGI: 5.54 µM
[38]
  GI50: 1.67 µM
  TGI: 4.46 µM
[39]
  GI50: 1.22 µM
  TGI: 4.3 µM
[40]
  GI50: 1.61 µM
  TGI: 3.12 µM
[41]
  GI50: 1.61 µM
  TGI: 4.35 µM
[42]
  GI50: 1.61 µM
  TGI: 3.49 µM
[43]
  GI50: 2.04 µM
  TGI: 4.65 µM
[44]
  GI50: 1.76 µM
  TGI: 3.95 µM
[45]
  GI50: 2.03 µM
  TGI: 3.86 µM
[46]
  GI50: 1.7 µM
  TGI: 3.2 µM
[47]
  GI50: 2.4 µM
  TGI: 8.31 µM
[48]
  GI50: 1.48 µM
  TGI: 3.44 µM
[49]
  GI50: 1.53 µM
  TGI: 3.22 µM
[50]
  GI50: 1.67 µM
  TGI: 4.34 µM
[51]
  GI50: 0.782 µM
  TGI: 7.31 µM
[52]
  GI50: 1.69 µM
  TGI: 5.03 µM
[53]
  GI50: 1.73 µM
  TGI: 5.26 µM
[54]
  GI50: 2.35 µM
  TGI: 5.31 µM
[55]
  GI50: 1.4 µM
  TGI: 2.74 µM
[56]
  GI50: 1.88 µM
  TGI: 3.56 µM
[57]
  GI50: 1.62 µM
  TGI: 3.1 µM
[58]
  GI50: 1.32 µM
  TGI: 2.74 µM

## CN[C@@H](C)C(=O)N[C@H]1CN(S(=O)(=O)c2cccc(S(=O)(=O)N3CC[C@H]4CC[C@@H](C(=O)NC(c5ccccc5)c5ccccc5)N4C(=O)[C@@H](NC(=O)[C@H](C)NC)C3)c2)CC[C@H]2CC[C@@H](C(=O)NC(c3ccccc3)c3ccccc3)N2C1=O
[1]
  GI50: 20 µM
  TGI: 43.8 µM
[2]
  GI50: 32.6 µM
  TGI: > 67.7 µM
[3]
  GI50: > 53.1 µM
  TGI: > 100 µM
[4]
  GI50: > 79.7 µM
  TGI: > 100 µM
[5]
  GI50: < 0.01 µM
  TGI: < 0.0197 µM
[6]
  GI50: 58.4 µM
  TGI: > 100 µM
[7]
  GI50: 1.85 µM
  TGI: > 100 µM
[8]
  GI50: 15.3 µM
  TGI: 35.2 µM
[9]
  GI50: 15.1 µM
  TGI: 28.3 µM
[10]
  GI50: 25.2 µM
  TGI: > 74 µM
[11]
  GI50: 11 µM
  TGI: 27.2 µM
[12]
  GI50: 18.4 µM
  TGI: 51.2 µM
[13]
  GI50: > 93.6 µM
  TGI: > 100 µM
[14]
  GI50: 0.0317 µM
  TGI: 1.69 µM
[15]
  GI50: 5.14 µM
  TGI: > 100 µM
[16]
  GI50: 7.71 µM
  TGI: 27.4 µM
[17]
  GI50: 18.9 µM
  TGI: 47.8 µM
[18]
  GI50: 20.7 µM
  TGI: > 48.3 µM
[19]
  GI50: 21 µM
  TGI: 44.5 µM
[20]
  GI50: 26.5 µM
  TGI: > 100 µM
[21]
  GI50: 16.7 µM
  TGI: 34.3 µM
[22]
  GI50: 14.8 µM
  TGI: 36.5 µM
[23]
  GI50: 34.3 µM
  TGI: > 100 µM
[24]
  GI50: < 0.0104 µM
  TGI: 0.0452 µM
[25]
  GI50: 6.93 µM
  TGI: 29.2 µM
[26]
  GI50: < 0.0157 µM
[27]
  GI50: 1.89 µM
  TGI: 21.6 µM
[28]
  GI50: 47 µM
  TGI: > 100 µM
[29]
  GI50: 28.9 µM
  TGI: > 100 µM
[30]
  GI50: 1.09 µM
  TGI: 17.9 µM
[31]
  GI50: 20.2 µM
  TGI: 46.3 µM
[32]
  GI50: 2.43 µM
  TGI: 34.8 µM
[33]
  GI50: > 100 µM
  TGI: > 100 µM
[34]
  GI50: 12.2 µM
  TGI: 25.2 µM
[35]
  GI50: 0.0187 µM
  TGI: 0.128 µM
[36]
  GI50: 18.6 µM
  TGI: 39.9 µM
[37]
  GI50: 5.64 µM
  TGI: 26.8 µM
[38]
  GI50: 21.5 µM
  TGI: > 63.3 µM
[39]
  GI50: 3.92 µM
  TGI: 99.2 µM
[40]
  GI50: 0.165 µM
  TGI: 2.93 µM
[41]
  GI50: 20.9 µM
  TGI: 47.8 µM
[42]
  GI50: 14.4 µM
  TGI: > 71.4 µM
[43]
  GI50: < 0.01 µM
  TGI: 0.509 µM
[44]
  GI50: < 0.0223 µM
  TGI: 10.9 µM
[45]
  GI50: 15.6 µM
  TGI: 29.7 µM
[46]
  GI50: 9.56 µM
  TGI: 34.3 µM
[48]
  GI50: 16.6 µM
  TGI: 36 µM
[49]
  GI50: 21.2 µM
  TGI: 43.6 µM
[50]
  TGI: 0.721 µM
[51]
  GI50: 1.95 µM
  TGI: > 100 µM
[52]
  GI50: 31.7 µM
  TGI: > 100 µM
[53]
  GI50: 23.6 µM
  TGI: > 100 µM
[54]
  GI50: 55.9 µM
  TGI: > 100 µM
[55]
  GI50: 24.4 µM
  TGI: 63.8 µM
[56]
  GI50: 18 µM
  TGI: 50.2 µM
[57]
  GI50: 18 µM
  TGI: 38.9 µM
[58]
  GI50: > 73 µM
  TGI: > 100 µM
